{"source": "the supplement of paper PMC11061612", "experiment_in_all_cases": "combination Emax (second highest fraction inhibited in the dose matrix, 72 h); higher = more inhibition; extreme values may be limits of the assay", "key": {"[1]": {"system": "SW756 (Cervical Carcinoma)", "in_short": "(§1)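 Cell lines in DMEM/F12 or RPMI with 10% FBS were plated in 1536-well plates, held 24 hours at 37°C, 5% CO2, then given two-drug dose matrices for 72 hours (DMSO typically 0.2%). Viability was read by CellTiter-Glo 2.0 luminescence and scaled as inhibition from 0 (vehicle wells) to 1 (blank wells). Combination Emax is the second-highest inhibition in the matrix; Bliss excess is observed combination effect minus expected EA + EB − EA·EB, EA and EB being single-agent effects.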"}, "[2]": {"system": "SW780 (Bladder Carcinoma)", "in_short": "as §1"}, "[3]": {"system": "TGBC24TKB (Biliary Tract Carcinoma)", "in_short": "as §1"}, "[4]": {"system": "SUIT-2 (Pancreatic Carcinoma)", "in_short": "as §1"}, "[5]": {"system": "KM-H2 (Hodgkin's Lymphoma)", "in_short": "as §1"}, "RH-1 (Ewing's Sarcoma)": {"system": "RH-1 (Ewing's Sarcoma)", "in_short": "as §1"}}, "data": [{"smiles": "CS(=O)(=O)CCNCc1ccc(-c2ccc3ncnc(Nc4ccc(OCc5cccc(F)c5)c(Cl)c4)c3c2)o1", "note": "[Lapatinib] + NC1(c2ccc(-c3nc4ccn5c(=O)[nH]nc5c4cc3-c3ccccc3)cc2)CCC1 [MK-2206] (first compound max 10 µM, 7x7, partner max 10 µM)", "values": [{"measurement": "combination Emax", "setting": "[1]", "result": 0.175}, {"measurement": "combination Emax", "setting": "[2]", "result": 0.737}, {"measurement": "combination Emax", "setting": "[3]", "result": 0.957}, {"measurement": "combination Emax", "setting": "[4]", "result": 0.361}, {"measurement": "combination Emax", "setting": "[5]", "result": 0.939}, {"measurement": "combination Emax", "setting": "RH-1 (Ewing's Sarcoma)", "result": 0.936}]}]}
